Drawing on ChEMBL document CHEMBL4359845, “Synthesis and Evaluation of Carbonic Anhydrase Inhibitors with Carbon Monoxide Releasing Properties for the Management of Rheumatoid Arthritis” (J Med Chem, 2019), this text covers Ki and Activity for 8 compounds.

pKi: −log10 of the molar value. The source made the active and inactive calls.

The pKi is the negative decadic logarithm of the Ki, by convention in mol/L.

Data set [1] addresses T1, Carbonic anhydrase 1 (Homo sapiens, UniProt P00915). Kind of data set: Inhibition of recombinant human carbonic anhydrase 1 incubated for 6 hrs prior to testing measured for 10 to 100 secs by phenol red-based stopped-flow CO2 hydration assay.
Data set [2] concerns the target T2, Carbonic anhydrase 2 (Homo sapiens, UniProt P00918). The data set is described as follows: Inhibition of recombinant human carbonic anhydrase 2 incubated for 6 hrs prior to testing measured for 10 to 100 secs by phenol red-based stopped-flow CO2 hydration assay.
The target of data set [3] is T3, Carbonic anhydrase 9 (Homo sapiens, UniProt Q16790). The data set is described as follows: Inhibition of recombinant human carbonic anhydrase 9 incubated for 6 hrs prior to testing measured for 10 to 100 secs by phenol red-based stopped-flow CO2 hydration assay.
The target of a further data set is Carbonic anhydrase 12 (Homo sapiens, UniProt O43570). The data set is described as follows: Inhibition of recombinant human carbonic anhydrase 12 incubated for 6 hrs prior to testing measured for 10 to 100 secs by phenol red-based stopped-flow CO2 hydration assay.
The target in data set [4] is T1, Carbonic anhydrase 1. The data set is described as follows: Inhibition of recombinant human carbonic anhydrase 1 incubated for 15 mins prior to testing measured for 10 to 100 secs by phenol red-based stopped-flow CO2 hydration assay.
The target in data set [5] is T2, Carbonic anhydrase 2. The data set is described as follows: Inhibition of recombinant human carbonic anhydrase 2 incubated for 15 mins prior to testing measured for 10 to 100 secs by phenol red-based stopped-flow CO2 hydration assay.
A further data set has as its target Carbonic anhydrase 4 (Homo sapiens, UniProt P22748). Kind of data set: Inhibition of recombinant human carbonic anhydrase 4 incubated for 15 mins prior to testing measured for 10 to 100 secs by phenol red-based stopped-flow CO2 hydration assay.
Data set [6] addresses T3, Carbonic anhydrase 9. The data set is described as follows: Inhibition of recombinant human carbonic anhydrase 9 incubated for 15 mins prior to testing measured for 10 to 100 secs by phenol red-based stopped-flow CO2 hydration assay.
Data set [7] concerns Rattus norvegicus. The data set is described as follows: Antihyperalgesic activity in complete freund's adjuvant-induced Sprague-Dawley rat arthritis model assessed as increase in hind paw withdrawal reflex thresholds at 42.4 mg/kg, po administered 14 days post complete freund's adjuvant challenge and measured up to 45 mins by analgesiometry-based paw pressure test. It counts as functional, organism-based.

Data set [8] has as its system Rattus norvegicus. The data set is described as follows: Antihyperalgesic activity in complete freund's adjuvant-induced Sprague-Dawley rat arthritis model assessed as increase in hind paw withdrawal reflex thresholds at 42.4 mg/kg, po administered 14 days post complete freund's adjuvant challenge and measured after 45 to 60 mins by analgesiometry-based paw pressure test. It counts as functional, organism-based.

The test system of data set [9] is Rattus norvegicus. The data set is described as follows: Effect on contralateral paw withdrawal reflex threshold in complete freund's adjuvant-induced Sprague-Dawley rat arthritis model at 42.4 mg/kg, po administered 14 days post complete freund's adjuvant challenge by analgesiometry-based paw pressure test. It counts as ADME, organism-based. Conditions: in vivo, 336 h.

The test system of data set [10] is Rattus norvegicus. The data set is described as follows: Antihyperalgesic activity in complete freund's adjuvant-induced Sprague-Dawley rat arthritis model assessed as decrease in weight burden on contralateral to ipsilateral paw at 42.4 mg/kg, po administered 14 days post complete freund's adjuvant challenge and measured up to 45 mins by incapacitance test. It counts as functional, organism-based.

Data set [11] has as its system Rattus norvegicus. The data set is described as follows: Antihyperalgesic activity in complete freund's adjuvant-induced Sprague-Dawley rat arthritis model assessed as increase in hind paw withdrawal reflex thresholds at 100 mg/kg, po administered 14 days post complete freund's adjuvant challenge and measured up to 15 mins by analgesiometry-based paw pressure test. It counts as functional, organism-based.

Data set [12] has as its system Rattus norvegicus. The data set is described as follows: Antihyperalgesic activity in complete freund's adjuvant-induced Sprague-Dawley rat arthritis model assessed as increase in hind paw withdrawal reflex thresholds at 100 mg/kg, po administered 14 days post complete freund's adjuvant challenge and measured after 15 to 60 mins by analgesiometry-based paw pressure test. The data set is classed as functional, organism-based.

For data set [13], the system named is Rattus norvegicus. Kind of data set: Effect on contralateral paw withdrawal reflex threshold in complete freund's adjuvant-induced Sprague-Dawley rat arthritis model at 100 mg/kg, po administered 14 days post complete freund's adjuvant challenge by analgesiometry-based paw pressure test. It counts as ADME, organism-based. The following applies: in vivo, 336 h.

Data set [14] has as its system Rattus norvegicus. The data set is described as follows: Antihyperalgesic activity in complete freund's adjuvant-induced Sprague-Dawley rat arthritis model assessed as decrease in weight burden on contralateral to ipsilateral paw at 100 mg/kg, po administered 14 days post complete freund's adjuvant challenge and measured up to 15 mins by incapacitance test. It counts as functional, organism-based.

Sequence of Carbonic anhydrase 12 (O43570 whole entry): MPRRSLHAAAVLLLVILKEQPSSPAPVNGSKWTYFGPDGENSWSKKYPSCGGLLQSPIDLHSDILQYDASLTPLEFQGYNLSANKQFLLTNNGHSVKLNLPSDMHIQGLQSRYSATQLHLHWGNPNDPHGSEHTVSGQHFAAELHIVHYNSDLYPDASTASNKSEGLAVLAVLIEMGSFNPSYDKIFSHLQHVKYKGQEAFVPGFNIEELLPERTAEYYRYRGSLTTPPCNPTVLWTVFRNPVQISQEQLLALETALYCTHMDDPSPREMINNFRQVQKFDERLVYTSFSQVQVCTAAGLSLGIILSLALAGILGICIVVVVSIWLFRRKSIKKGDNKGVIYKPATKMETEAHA
T1 sequence (P00915 whole entry): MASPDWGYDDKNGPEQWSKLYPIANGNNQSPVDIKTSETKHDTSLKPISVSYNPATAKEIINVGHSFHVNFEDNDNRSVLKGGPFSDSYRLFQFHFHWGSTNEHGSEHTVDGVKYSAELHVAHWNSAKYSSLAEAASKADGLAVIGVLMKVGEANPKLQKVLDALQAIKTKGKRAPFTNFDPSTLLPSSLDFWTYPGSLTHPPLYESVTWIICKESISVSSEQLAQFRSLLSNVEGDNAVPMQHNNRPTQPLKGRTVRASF
Sequence of Carbonic anhydrase 4 (P22748 whole entry): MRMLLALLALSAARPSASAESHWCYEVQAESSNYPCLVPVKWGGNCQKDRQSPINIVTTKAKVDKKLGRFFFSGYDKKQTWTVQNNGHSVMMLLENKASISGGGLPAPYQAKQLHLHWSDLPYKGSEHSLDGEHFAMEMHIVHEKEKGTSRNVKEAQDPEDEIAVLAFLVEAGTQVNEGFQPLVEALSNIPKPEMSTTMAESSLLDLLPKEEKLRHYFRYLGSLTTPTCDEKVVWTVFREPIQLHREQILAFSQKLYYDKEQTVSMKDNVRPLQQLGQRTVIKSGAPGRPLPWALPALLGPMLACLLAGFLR

`C#CCOc1ccc2c(c1)OS(=O)(=O)C=C2`: the pKi was under 5.00 at Carbonic anhydrase 1 [1], under 5.00 at Carbonic anhydrase 2 [2], 5.21 on Carbonic anhydrase 9 [3] and 7.52 on Carbonic anhydrase 12.

In the case of `C#CCNc1ccc(S(N)(=O)=O)cc1`, the pKi on Carbonic anhydrase 1 [4] was 6.07; on Carbonic anhydrase 2 [5], 7.02; at Carbonic anhydrase 4, under 5.00; at Carbonic anhydrase 9 [6], 6.38. Also, the outcome in the data set on Rattus norvegicus [7] and with Rattus norvegicus [10] was Active. Moreover, the result in the data set on Rattus norvegicus [8] was inactive. Besides, the Activity entry in the data set on Rattus norvegicus [9] is on record as “Non-Toxic”.

In the case of `C#CCNc1ccc2c(C)cc(=O)oc2c1`, the pKi was 6.77 on Carbonic anhydrase 9 [3] and 7.46 on Carbonic anhydrase 12.

`C#CCSc1ccc(S(N)(=O)=O)cc1`: the values for the pKi at Carbonic anhydrase 1 [4], at Carbonic anhydrase 2 [5] and at Carbonic anhydrase 9 [6] were 7.52, 7.53 and 8.12, respectively.

In the case of `C#CCOc1ccc2c(c1)C=CS(=O)(=O)O2`, the pKi at Carbonic anhydrase 1 [1] was under 5.00; on Carbonic anhydrase 2 [2] it was under 5.00; on Carbonic anhydrase 9 [3] it was 6.32; at Carbonic anhydrase 12, 7.35.

For `CC(C)Cc1ccc(C(C)C(=O)O)cc1` (stereo not given) [IBUPROFEN], the outcome with Rattus norvegicus [11] and in the data set with Rattus norvegicus [14] was Active. For the same compound, the result in the data set on Rattus norvegicus [12] was inactive. In the data set on Rattus norvegicus [13], the Activity result was “Non-Toxic”.

For the compound `C#CCN(CC#C)CCCCOc1ccc(S(N)(=O)=O)cc1`, the negative-log Ki (pKi) at Carbonic anhydrase 1 [4] was 6.09; at Carbonic anhydrase 2 [5], 9.36; on Carbonic anhydrase 9 [6] it was 8.42.

Turning to `C#CCOc1ccc2oc(=O)ccc2c1`, the negative logarithm of the Ki (pKi) at Carbonic anhydrase 1 [1] and at Carbonic anhydrase 2 [2] was under 5.00 each time.
